The values below come from patent US20240083875A1, “DIHYDROISOQUINOLINYL DERIVATIVES” (UCB BIOPHARMA SRL, priority 2020, published 2024).

pEC50: −log10 of the molar value.

In assay [1] the target is T1, human GABAA receptor α1, β2 and γ2 subunits (Homo sapiens, UniProt P14867+P18507+P47870).
T1 construct: expressed in transfected cells
As to the kind of experiment: Automated patch clamp studies on the GABAA receptor (IonFlux HT). It counts as cell-based. The note with it: 10 μM compound; 15 μM GABA as agonist; CHO-K1 cells expressing human GABAA α1β2γ2. Here is the method: CHO-K1 cells stably expressing human GABAA receptor α1, β2 and γ2 subunits were used. The cells were harvested using trypsin and maintained in serum-free medium at room temperature. The cells were washed and re-suspended in extracellular solution before testing.
Experiments on human GABAA (α1β2γ2) channels were conducted using an automated patch clamp assay (IonFlux™ HT). Compounds were tested at 3 concentrations (0.1, 1, and 10 μM) in 3 to 4 cells. The external solution for recording GABAA currents was composed of sodium chloride 137 mM, potassium chloride 4 mM, calcium chloride 1.8 mM, magnesium chloride 1 mM, HEPES 10 mM, and glucose 10 mM. Both external and internal solutions were titrated with NaOH or KOH to obtain a pH of 7.35 or 7.3, respectively. The internal pipette solution contained potassium fluoride 70 mM, potassium chloride 60 mM, sodium chloride 70 mM, HEPES 5 mM, EGTA 5 mM, and Magnesium ATP 4 mM. The final concentration of vehicle used to dilute compounds was 0.33% DMSO in each well. Bicuculline (0.032 to 100 μM) was used as positive control inhibitor. GABA (15 μM) was used as agonist. All recordings were obtained from a holding potential of −60 mV.
The compound addition sequence was the following: one addition of the EC80 concentration of GABA was added to establish baseline response. Each concentration of compound was applied for 30 seconds followed by the addition of 15 μM GABA in the presence of the compound for 2 seconds. The process was repeated with the next ascending concentration of compound. Peak inward currents in response to the GABA additions in the presence of a single concentration of compound were measured. All compound data have been normalized to the baseline peak current induced by addition of 15 μM GABA for 2 seconds.

The target of assay [2] is T2, dopamine D1 receptor (Homo sapiens, UniProt P21728).
T2 construct: host or cells: LMtk (Ltk-) mouse fibroblast cells
As to the kind of experiment: cAMP HTRF potentiation assay (PAM, in the presence of EC20 dopamine). The note with it: for Erel (%): maximal % potentiation relative to dopamine maximal response (100%), EC20 dopamine, LMtk cells expressing D1 receptor; for pEC50: potentiation of cAMP levels with EC20 dopamine (1.1 nM), LMtk mouse fibroblast cells expressing D1 receptor. It is filed as cell-based. As for the experimental part:
The potentiation assay measures the ability of compounds to increase the levels of cAMP produced by a low-threshold concentration of dopamine. The concentration of dopamine used ([EC20]) is designed to produce 20% stimulation compared to the maximal response (100%) seen with increasing the concentration of dopamine. To measure this potentiation increasing concentrations of the compound with the [EC20] of dopamine are incubated and the potentiation is measured as increases in cAMP production and concentration of compound which produces 50% of the potentiation of the cAMP levels is measured.
Cells were cultured at 37° C. in a humidified atmosphere of 5% CO2. Cells were grown in DMEM-F12+GlutaMAX™-I medium (GIBCO®, Invitrogen, Merelbeke, Belgium) containing 10% fetal bovine serum (BioWhittaker®, Lonza, Verviers, Belgium), 400 μg/mL Geneticin (GIBCO®), 100 IU/mL Penicillin and 100 IU/mL Streptomycin (Pen-Strep solution, BioWhittaker®).
The measurement of changes in intracellular cyclic adenosinemonophopshpate (cAMP) was determined using the HTRF cAMP dynamic assay kit from CisBio (Codolet, France). Using homogenous time-resolved fluoresence technology, the assay is based on competition between native cAMP produced by cells and cAMP labelled with the dye d2. The tracer binding is determined by an anti-cAMP antibody labeled with cryptate. The effects of the compound alone (agonism) was determined by performing the assay in the absence of dopamine, whilst the effect of the compound as a positive allosteric modulator (PAM) was determined in the presence of an EC20 concentration of dopamine. Cells (20,000 per well) are incubated in 384 plates for 1 hour at room temperature in a final volume of 20 μLHBSS (Lonza, with calcium, magnesium and HEPES buffer 20 mM, pH 7.4) containing: isobutyl methylxanthine (Sigma, 0.1 mM final), varying concentrations of test compound (typically 10^−9.5M to […]) in the presence and absence of dopamine (1.1 nM final). The reaction is then terminated and the cells lysed by adding the d2 detection reagent in lysis buffer (10 microL) and the cryptate reagent in lysis buffer (10 microl) according to manufacturer's instructions. This is then incubated for a further 60 min at room temperature and changes in HTRF fluorescent emission ratio determined according to manufacturer's instructions using an Envision plate reader (Perkin Elmer, Zaventem, Belgium) with laser excitation. All incubations were performed in duplicate and results were compared to a concentration-effect curve to dopamine. (10^−11 M to 10^−6 M).
Data was analyzed using Excel and PRISM (GraphPad Software) to obtain pEC50 and Erel using the 4-parameter logistic equation (DeLean et al, 1978) where Erel is the fitted maximal response of the test compound minus basal expressed as a percentage relative to that obtained with dopamine which was defined as 100%.
The pEC50 of a compound is the −log10 of the concentration of the compound which produces 50% of the potentiation of the cAMP levels.
The Erel is the relative efficacy, defined as the maximal % potentiation produced by the compound compared to the maximal response produced by increasing concentrations of dopamine (Erel of 1=dopamine maximum response), has been measured.

T2 sequence (P21728 whole entry): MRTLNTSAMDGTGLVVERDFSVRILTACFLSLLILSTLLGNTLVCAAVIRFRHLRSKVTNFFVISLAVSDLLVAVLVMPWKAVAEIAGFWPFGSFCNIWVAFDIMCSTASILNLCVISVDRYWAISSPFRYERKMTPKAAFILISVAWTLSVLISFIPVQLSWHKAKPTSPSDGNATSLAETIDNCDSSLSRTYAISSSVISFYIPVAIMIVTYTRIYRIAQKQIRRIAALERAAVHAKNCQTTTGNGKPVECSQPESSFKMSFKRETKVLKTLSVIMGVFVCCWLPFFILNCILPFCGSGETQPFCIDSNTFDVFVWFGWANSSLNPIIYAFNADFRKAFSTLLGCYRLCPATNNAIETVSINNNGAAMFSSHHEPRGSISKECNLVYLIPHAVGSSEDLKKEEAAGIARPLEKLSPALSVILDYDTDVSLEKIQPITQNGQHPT
T1 sequence (P14867 28-456): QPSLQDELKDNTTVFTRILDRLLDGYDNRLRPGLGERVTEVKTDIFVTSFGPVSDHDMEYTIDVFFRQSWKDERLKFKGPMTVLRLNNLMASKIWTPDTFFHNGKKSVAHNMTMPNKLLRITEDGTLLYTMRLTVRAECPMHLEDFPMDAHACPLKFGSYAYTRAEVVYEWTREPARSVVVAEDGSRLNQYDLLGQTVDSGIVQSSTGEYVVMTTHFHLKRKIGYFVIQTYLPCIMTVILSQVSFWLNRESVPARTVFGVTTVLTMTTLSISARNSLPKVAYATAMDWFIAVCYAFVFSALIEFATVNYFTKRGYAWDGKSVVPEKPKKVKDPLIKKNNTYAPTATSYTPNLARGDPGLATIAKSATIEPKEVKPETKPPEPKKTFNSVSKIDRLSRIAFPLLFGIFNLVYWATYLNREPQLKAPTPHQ
T1 sequence (P47870 25-512 limits assumed): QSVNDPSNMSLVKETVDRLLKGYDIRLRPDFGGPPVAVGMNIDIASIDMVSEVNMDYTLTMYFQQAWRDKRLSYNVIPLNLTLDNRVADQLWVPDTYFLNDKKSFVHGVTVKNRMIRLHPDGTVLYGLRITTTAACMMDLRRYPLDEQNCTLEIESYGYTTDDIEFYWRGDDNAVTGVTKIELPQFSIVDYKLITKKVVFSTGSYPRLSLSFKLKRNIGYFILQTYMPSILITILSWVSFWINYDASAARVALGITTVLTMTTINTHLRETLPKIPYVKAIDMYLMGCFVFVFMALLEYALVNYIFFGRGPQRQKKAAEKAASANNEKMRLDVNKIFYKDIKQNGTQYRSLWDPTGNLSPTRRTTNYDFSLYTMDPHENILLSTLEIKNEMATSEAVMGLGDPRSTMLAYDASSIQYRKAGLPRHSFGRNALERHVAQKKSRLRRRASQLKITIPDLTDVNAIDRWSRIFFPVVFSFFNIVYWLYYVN
T1 sequence (P18507 40-475): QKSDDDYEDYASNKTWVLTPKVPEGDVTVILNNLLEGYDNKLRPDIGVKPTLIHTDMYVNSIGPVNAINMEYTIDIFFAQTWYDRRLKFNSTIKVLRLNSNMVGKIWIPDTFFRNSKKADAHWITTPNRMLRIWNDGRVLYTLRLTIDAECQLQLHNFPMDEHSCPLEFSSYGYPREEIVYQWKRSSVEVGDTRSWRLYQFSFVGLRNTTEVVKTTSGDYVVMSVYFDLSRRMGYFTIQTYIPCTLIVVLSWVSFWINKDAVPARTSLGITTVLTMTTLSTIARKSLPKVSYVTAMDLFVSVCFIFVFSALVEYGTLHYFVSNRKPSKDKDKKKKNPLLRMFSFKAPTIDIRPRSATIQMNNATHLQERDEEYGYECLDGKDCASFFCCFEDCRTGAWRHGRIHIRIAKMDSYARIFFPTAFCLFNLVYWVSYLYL

Take `C[C@H]1c2cccc(-c3cnn(C)c3)c2C[C@H](CO)N1C(=O)Cc1c(Cl)ccc2c1c(Cl)nn2C` [Example 1, 2-(3,5-dichloro-1-methyl-indazol-4-yl)-1-[(1S,3R)-3-(hydroxymethyl)-1-methyl-5-(1-methylpyrazol-4-yl)-3,4-dihydro-1H-isoquinolin-2-yl]ethanone]: at 10 µM the inhibition in assay [1] was 2.7%. In assay [2], the “Erel (%)” value was 74% and the pEC50 is 7.90.

As for `C[C@H]1c2cccc(-c3cn[nH]c3)c2C[C@H](CO)N1C(=O)Cc1c(Cl)ccc2c1c(Cl)nn2C` [Example 2, 2-(3,5-dichloro-1-methyl-indazol-4-yl)-1-[(1S,3R)-3-(hydroxymethyl)-1-methyl-5-(1H-pyrazol-4-yl)-3,4-dihydro-1H-isoquinolin-2-yl]ethanone], the inhibition at 10 µM in assay [1] was 0%. Further, in assay [2], the “Erel (%)” value is on record as 71% and the pEC50 was 8.20.

Turning to `C[C@H]1c2cccc(-c3cn[nH]c3)c2C[C@H](CO)N1C(=O)Cc1c(Cl)ccc2[nH]nc(Cl)c12` [Example 3, 2-(3,5-dichloro-1H-indazol-4-yl)-1-[(1S,3R)-3-(hydroxymethyl)-1-methyl-5-(1H-pyrazol-4-yl)-3,4-dihydro-1H-isoquinolin-2-yl]ethanone], testing at 10 µM in assay [1] gave an inhibition of 7.8%. Besides, in assay [2], the “Erel (%)” value is reported as 61% and the negative logarithm of the EC50 (pEC50) was 8.20.

`C[C@H]1c2cccc(-c3cnn(C)c3)c2C[C@H](CO)N1C(=O)Cc1c(Cl)ccc2[nH]nc(Cl)c12` [Example 4, 2-(3,5-dichloro-1H-indazol-4-yl)-1-[(1S,3R)-3-(hydroxymethyl)-1-methyl-5-(1-methylpyrazol-4-yl)-3,4-dihydro-1H-isoquinolin-2-yl]ethanone] returned an inhibition at 10 µM in assay [1] of 10.1%. In addition, in assay [2], the “Erel (%)” value worked out at 63% and the pEC50 is 8.10.
